Measurements published in PubChem BioAssay (NCI).
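Five compound concentrations were applied to cells in 96-well plates for 48 hours; endpoints were derived by simple linear interpolation of the resulting dose-response curve. Definition used: TGI = concentration required for complete inhibition of growth.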

Legend:
Assay in all cases: NCI anticancer screen, dose series, 48 h
786-0 renal = system: 786-0 renal
A498 renal = system: A498 renal
A549 NSCLC = system: A549 NSCLC
ACHN renal = system: ACHN renal
BT-549 breast = system: BT-549 breast
CAKI-1 renal = system: CAKI-1 renal
CCRF-CEM leukemia = system: CCRF-CEM leukemia
DU-145 prostate = system: DU-145 prostate
EKVX NSCLC = system: EKVX NSCLC
HCC-2998 colon = system: HCC-2998 colon
HCT-116 colon = system: HCT-116 colon
HCT-15 colon = system: HCT-15 colon
HL-60(TB) leukemia = system: HL-60(TB) leukemia
HOP-62 NSCLC = system: HOP-62 NSCLC
HOP-92 NSCLC = system: HOP-92 NSCLC
HS 578T breast = system: HS 578T breast
HT29 colon = system: HT29 colon
IGROV1 ovarian = system: IGROV1 ovarian
K-562 leukemia = system: K-562 leukemia
KM12 colon = system: KM12 colon
LOX IMVI melanoma = system: LOX IMVI melanoma
M14 melanoma = system: M14 melanoma
MALME-3M melanoma = system: MALME-3M melanoma
MCF7 breast = system: MCF7 breast
MDA-MB-231 breast = system: MDA-MB-231 breast
MDA-MB-435 = system: MDA-MB-435
MDA-N = system: MDA-N
MOLT-4 leukemia = system: MOLT-4 leukemia
NCI-H226 lung = system: NCI-H226 lung
NCI-H23 lung = system: NCI-H23 lung
NCI-H460 lung = system: NCI-H460 lung
NCI-H522 lung = system: NCI-H522 lung
NCI/ADR-RES ovarian = system: NCI/ADR-RES ovarian
OVCAR-3 ovarian = system: OVCAR-3 ovarian
OVCAR-4 ovarian = system: OVCAR-4 ovarian
OVCAR-5 ovarian = system: OVCAR-5 ovarian
OVCAR-8 ovarian = system: OVCAR-8 ovarian
PC-3 prostate = system: PC-3 prostate
RPMI-8226 leukemia = system: RPMI-8226 leukemia
RXF 393 renal = system: RXF 393 renal
SF-268 CNS = system: SF-268 CNS
SF-295 CNS = system: SF-295 CNS
SF-539 CNS = system: SF-539 CNS
SK-MEL-2 melanoma = system: SK-MEL-2 melanoma
SK-MEL-28 melanoma = system: SK-MEL-28 melanoma
SK-MEL-5 melanoma = system: SK-MEL-5 melanoma
SK-OV-3 ovarian = system: SK-OV-3 ovarian
SN12C renal = system: SN12C renal
SNB-19 CNS = system: SNB-19 CNS
SNB-75 CNS = system: SNB-75 CNS
SR leukemia = system: SR leukemia
SW-620 colon = system: SW-620 colon
T-47D breast = system: T-47D breast
TK-10 renal = system: TK-10 renal
U251 CNS = system: U251 CNS
UACC-257 melanoma = system: UACC-257 melanoma
UACC-62 melanoma = system: UACC-62 melanoma
UO-31 renal = system: UO-31 renal
DLD-1 colon = system: DLD-1 colon
KM20L2 colon = system: KM20L2 colon
LXFL 529 NSCLC = system: LXFL 529 NSCLC
M19-MEL melanoma = system: M19-MEL melanoma
COLO 205 colon = system: COLO 205 colon
DMS 114 small cell lung = system: DMS 114 small cell lung
DMS 273 small cell lung = system: DMS 273 small cell lung
HOP-18 NSCLC = system: HOP-18 NSCLC

For OCc1ccc2c(c1)CC1(C2)Cc2cc3c(cc2C1)CCC3, the TGI (786-0 renal) was over 100 µM, the TGI (A498 renal) was 35.4 µM and the TGI (A549 NSCLC) was over 100 µM. For the same compound, the TGI (ACHN renal) was over 82.4 µM, the TGI (BT-549 breast) was over 100000 nM and the TGI (CAKI-1 renal) was over 100000 nM. It also gave a TGI (CCRF-CEM leukemia) of over 100000 nM, a TGI (DU-145 prostate) of over 100 µM and a TGI (EKVX NSCLC) of over 100 µM. It also gave a TGI (HCC-2998 colon) of over 100 µM, a TGI (HCT-116 colon) of over 100 µM and a TGI (HCT-15 colon) of over 100000 nM. The TGI (HL-60(TB) leukemia) was over 100000 nM, the TGI (HOP-62 NSCLC) was over 46.5 µM and the TGI (HOP-92 NSCLC) was over 74000 nM. It also gave a TGI (HS 578T breast) of 29.3 µM, a TGI (HT29 colon) of over 100 µM and a TGI (IGROV1 ovarian) of over 100 µM. It also gave a TGI (K-562 leukemia) of over 100 µM, a TGI (KM12 colon) of over 100 µM and a TGI (LOX IMVI melanoma) of over 100 µM. For the same compound, the TGI (M14 melanoma) was over 100 µM, the TGI (MALME-3M melanoma) was over 100 µM and the TGI (MCF7 breast) was over 100000 nM. The TGI (MDA-MB-231 breast) was over 100 µM, the TGI (MDA-MB-435) was 615 nM and the TGI (MDA-N) was 1740 nM. For the same compound, the TGI (MOLT-4 leukemia) was over 100000 nM, the TGI (NCI-H226 lung) was over 100 µM and the TGI (NCI-H23 lung) was over 100 µM. It also gave a TGI (NCI-H460 lung) of over 100 µM, a TGI (NCI-H522 lung) of over 27.6 µM and a TGI (NCI/ADR-RES ovarian) of over 100 µM. The TGI (OVCAR-3 ovarian) was over 100 µM, the TGI (OVCAR-4 ovarian) was over 100 µM and the TGI (OVCAR-5 ovarian) was over 100 µM. It also gave a TGI (OVCAR-8 ovarian) of over 100 µM, a TGI (PC-3 prostate) of over 34.6 µM and a TGI (RPMI-8226 leukemia) of over 100 µM. For the same compound, the TGI (RXF 393 renal) was 28500 nM, the TGI (SF-268 CNS) was over 100 µM and the TGI (SF-295 CNS) was over 44.5 µM. For the same compound, the TGI (SF-539 CNS) was over 100 µM, the TGI (SK-MEL-2 melanoma) was over 100 µM and the TGI (SK-MEL-28 melanoma) was over 100 µM. It also gave a TGI (SK-MEL-5 melanoma) of over 31.2 µM, a TGI (SK-OV-3 ovarian) of over 100 µM and a TGI (SN12C renal) of over 50.8 µM. For the same compound, the TGI (SNB-19 CNS) was over 100 µM, the TGI (SNB-75 CNS) was 8.18 µM and the TGI (SR leukemia) was over 100 µM. The TGI (SW-620 colon) was over 31600 nM, the TGI (T-47D breast) was over 100 µM and the TGI (TK-10 renal) was over 79.6 µM. The TGI (U251 CNS) was over 100 µM, the TGI (UACC-257 melanoma) was over 100000 nM and the TGI (UACC-62 melanoma) was over 72.2 µM. It also gave a TGI (UO-31 renal) of over 100 µM.
For CC1OC(OC2CCCc3c(O)c4c(c(O)c32)C(=O)c2ccccc2C4=O)CC(N)C1O (stereo not drawn), the TGI (786-0 renal) was 2.55 µM, the TGI (A498 renal) was 3.23 µM and the TGI (A549 NSCLC) was 3.37 µM. It also gave a TGI (ACHN renal) of 3.35 µM, a TGI (CAKI-1 renal) of 2910 nM and a TGI (CCRF-CEM leukemia) of 2640 nM. The TGI (DLD-1 colon) was 2690 nM, the TGI (EKVX NSCLC) was 3.27 µM and the TGI (HCC-2998 colon) was 3.51 µM. For the same compound, the TGI (HCT-116 colon) was 3.11 µM, the TGI (HOP-62 NSCLC) was 2.94 µM and the TGI (HOP-92 NSCLC) was 2860 nM. For the same compound, the TGI (HT29 colon) was 2.87 µM, the TGI (K-562 leukemia) was 2.35 µM and the TGI (KM12 colon) was 2.98 µM. The TGI (KM20L2 colon) was 3.84 µM, the TGI (LXFL 529 NSCLC) was 2940 nM and the TGI (M14 melanoma) was 3.21 µM. For the same compound, the TGI (M19-MEL melanoma) was 3240 nM, the TGI (MALME-3M melanoma) was 3.27 µM and the TGI (NCI-H23 lung) was 3.22 µM. For the same compound, the TGI (NCI-H460 lung) was 2.8 µM, the TGI (NCI-H522 lung) was 3.06 µM and the TGI (OVCAR-3 ovarian) was 2.62 µM. For the same compound, the TGI (OVCAR-4 ovarian) was 3.2 µM, the TGI (OVCAR-5 ovarian) was 3.44 µM and the TGI (RXF 393 renal) was 2230 nM. The TGI (SF-268 CNS) was 3.29 µM, the TGI (SF-295 CNS) was 3.22 µM and the TGI (SF-539 CNS) was 3.01 µM. For the same compound, the TGI (SK-MEL-2 melanoma) was 3.21 µM, the TGI (SK-MEL-28 melanoma) was 3.32 µM and the TGI (SK-OV-3 ovarian) was 2.42 µM. It also gave a TGI (SNB-19 CNS) of 3.04 µM, a TGI (SNB-75 CNS) of 2.66 µM and a TGI (TK-10 renal) of 3.02 µM. The TGI (U251 CNS) was 3.44 µM, the TGI (UACC-257 melanoma) was 3000 nM and the TGI (UO-31 renal) was 3.11 µM.
CC1(O)CC2(O)C=CC3=C(C(=O)c4cccc(O)c4C3=O)C2(O)C(=O)C1O (stereo not drawn) was tested, and the TGI (786-0 renal) was 3.84 µM, the TGI (A498 renal) was 14.9 µM and the TGI (A549 NSCLC) was 25.3 µM. It also gave a TGI (ACHN renal) of 3.1 µM, a TGI (BT-549 breast) of 2580 nM and a TGI (CAKI-1 renal) of 2240 nM. The TGI (CCRF-CEM leukemia) was 2870 nM, the TGI (COLO 205 colon) was 436 nM and the TGI (DLD-1 colon) was 2310 nM. For the same compound, the TGI (DMS 114 small cell lung) was 3.44 µM, the TGI (DMS 273 small cell lung) was 16.1 µM and the TGI (DU-145 prostate) was 32.3 µM. The TGI (EKVX NSCLC) was 5.99 µM, the TGI (HCC-2998 colon) was 7.54 µM and the TGI (HCT-116 colon) was 2.05 µM. For the same compound, the TGI (HCT-15 colon) was 2980 nM, the TGI (HL-60(TB) leukemia) was 2170 nM and the TGI (HOP-18 NSCLC) was 3.09 µM. It also gave a TGI (HOP-62 NSCLC) of 36.4 µM, a TGI (HOP-92 NSCLC) of 2190 nM and a TGI (HS 578T breast) of 10.7 µM. The TGI (HT29 colon) was 5.95 µM, the TGI (IGROV1 ovarian) was 10.6 µM and the TGI (K-562 leukemia) was 10.4 µM. The TGI (KM12 colon) was 17.8 µM, the TGI (KM20L2 colon) was 2.71 µM and the TGI (LOX IMVI melanoma) was 3.37 µM. It also gave a TGI (LXFL 529 NSCLC) of 1080 nM, a TGI (M14 melanoma) of 2.74 µM and a TGI (M19-MEL melanoma) of 1760 nM. It also gave a TGI (MALME-3M melanoma) of 0.966 µM, a TGI (MCF7 breast) of 2600 nM and a TGI (MDA-MB-231 breast) of 11.8 µM. For the same compound, the TGI (MDA-MB-435) was 3320 nM, the TGI (MDA-N) was 3240 nM and the TGI (MOLT-4 leukemia) was 2800 nM. The TGI (NCI-H226 lung) was 17.6 µM, the TGI (NCI-H23 lung) was 10.7 µM and the TGI (NCI-H460 lung) was 34.3 µM. For the same compound, the TGI (NCI-H522 lung) was 0.29 µM, the TGI (NCI/ADR-RES ovarian) was 20.2 µM and the TGI (OVCAR-3 ovarian) was 5.19 µM. For the same compound, the TGI (OVCAR-4 ovarian) was 2.86 µM, the TGI (OVCAR-5 ovarian) was 9.55 µM and the TGI (OVCAR-8 ovarian) was 8.08 µM. The TGI (PC-3 prostate) was 17.1 µM, the TGI (RPMI-8226 leukemia) was 4.66 µM and the TGI (RXF 393 renal) was 2130 nM. The TGI (SF-268 CNS) was 17.1 µM, the TGI (SF-295 CNS) was 26.7 µM and the TGI (SF-539 CNS) was 10 µM. For the same compound, the TGI (SK-MEL-2 melanoma) was 9.07 µM, the TGI (SK-MEL-28 melanoma) was 3.2 µM and the TGI (SK-MEL-5 melanoma) was 7.58 µM. It also gave a TGI (SK-OV-3 ovarian) of 28.5 µM, a TGI (SN12C renal) of 6.66 µM and a TGI (SNB-19 CNS) of 30.4 µM. It also gave a TGI (SNB-75 CNS) of 19.1 µM, a TGI (SR leukemia) of 18.1 µM and a TGI (SW-620 colon) of 1670 nM. The TGI (T-47D breast) was 3.51 µM, the TGI (TK-10 renal) was 3.12 µM and the TGI (U251 CNS) was 9.81 µM. For the same compound, the TGI (UACC-257 melanoma) was 2670 nM, the TGI (UACC-62 melanoma) was 6.88 µM and the TGI (UO-31 renal) was 4 µM.
